From PubChem BioAssay AID292 (DTP/NCI, 2004)
Values joined by “and” are separate entries in the source; they are usually repeats but may differ in a detail not shown here. Equal values may be shown once. Toxic doses and inconclusive results are not listed.

Tested on: B6C3F1 mice, ip Sarcoma M5076, median survival T/C
Test: NCI In Vivo Anticancer Drug Screen. Data for tumor model Sarcoma M5076 (intraperitoneal) in B6C3F1 mice
Conditions: endpoint: median survival time, higher = longer survival
Summary of the method: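 The readout is a ratio of survival in drug-treated animals to survival in animals given vehicle alone, taken in mice bearing a transplanted tumour line.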

[1] = dose: 200.0 mg/kg/injection, schedule: Q04DX004 (ip), vehicle: Klucel (hydroxypropylcellulose) (HPC)
[2] = dose: 400.0 mg/kg/injection, schedule: Q04DX004 (ip), vehicle: Klucel (hydroxypropylcellulose) (HPC)
[3] = dose: 6.25 mg/kg/injection, schedule: Q04DX004 (ip), vehicle: Klucel (hydroxypropylcellulose) (HPC)
[4] = dose: 12.5 mg/kg/injection, schedule: Q04DX004 (ip), vehicle: Klucel (hydroxypropylcellulose) (HPC)
[5] = dose: 25.0 mg/kg/injection, schedule: Q04DX004 (ip), vehicle: Klucel (hydroxypropylcellulose) (HPC)
[6] = dose: 50.0 mg/kg/injection, schedule: Q04DX004 (ip), vehicle: saline with Tween-80
[7] = dose: 100.0 mg/kg/injection, schedule: Q04DX004 (ip), vehicle: saline with Tween-80
[8] = dose: 200.0 mg/kg/injection, schedule: Q04DX004 (ip), vehicle: saline with Tween-80
[9] = dose: 400.0 mg/kg/injection, schedule: Q04DX004 (ip), vehicle: saline with Tween-80

Q: `CO[C@H](/C(C)=C/C=C/C(C)=C/c1coc(C)n1)[C@H](C)[C@H]1C[C@@H](O)[C@@]2(C)O[C@H]2/C=C/[C@@H](C)[C@@H]2C[C@@H](CC(=O)O2)C[C@H]2O[C@@H]2C(=O)O1` was tested. Which T/C (dose: 0.06 mg/kg/injection, schedule: Q04DX004 (ip), vehicle: other) did it give?
A: 110 % of control

Q: What about the T/C (dose: 0.09 mg/kg/injection, schedule: Q04DX004 (ip), vehicle: Klucel (hydroxypropylcellulose) (HPC)) of the same molecule?
A: 116 % of control

Q: And the T/C (dose: 0.09 mg/kg/injection, schedule: Q04DX004 (ip), vehicle: other)?
A: 108 % of control and 113 % of control

Q: What about the T/C (dose: 0.12 mg/kg/injection, schedule: Q04DX004 (ip), vehicle: Klucel (hydroxypropylcellulose) (HPC)) of the same molecule?
A: 118 % of control

Q: What about the T/C (dose: 0.13 mg/kg/injection, schedule: Q01DX005 (sc), vehicle: other) of the same molecule?
A: 109 % of control

Q: What about the T/C (dose: 0.13 mg/kg/injection, schedule: Q04DX004 (ip), vehicle: Klucel (hydroxypropylcellulose) (HPC)) of the same molecule?
A: 115 % of control and 121 % of control

Q: What about the T/C (dose: 0.13 mg/kg/injection, schedule: Q04DX004 (ip), vehicle: other) of the same molecule?
A: 110 % of control

Q: And the T/C (dose: 0.13 mg/kg/injection, schedule: Q04DX004 (iv), vehicle: other)?
A: 112 % of control

Q: What about the T/C (dose: 0.2 mg/kg/injection, schedule: Q01DX001 (sc), vehicle: other) of the same molecule?
A: 102 % of control

Q: What about the T/C (dose: 0.2 mg/kg/injection, schedule: Q01DX005 (sc), vehicle: other) of the same molecule?
A: 114 % of control

Q: What about the T/C (dose: 0.2 mg/kg/injection, schedule: Q01DX013 (ip), vehicle: other) of the same molecule?
A: 162 % of control

Q: What about the T/C (dose: 0.2 mg/kg/injection, schedule: Q04DX004 (ip), vehicle: Klucel (hydroxypropylcellulose) (HPC)) of the same molecule?
A: 119 % of control

Q: What about the T/C (dose: 0.2 mg/kg/injection, schedule: Q04DX004 (ip), vehicle: other) of the same molecule?
A: 115 % of control and 121 % of control and 122 % of control

Q: And the T/C (dose: 0.2 mg/kg/injection, schedule: Q04DX004 (iv), vehicle: other)?
A: 110 % of control

Q: What about the T/C (dose: 0.25 mg/kg/injection, schedule: Q04DX004 (ip), vehicle: Klucel (hydroxypropylcellulose) (HPC)) of the same molecule?
A: 118 % of control

Q: What about the T/C (dose: 0.3 mg/kg/injection, schedule: Q01DX001 (sc), vehicle: other) of the same molecule?
A: 105 % of control

Q: What about the T/C (dose: 0.3 mg/kg/injection, schedule: Q01DX005 (sc), vehicle: other) of the same molecule?
A: 115 % of control

Q: And the T/C (dose: 0.3 mg/kg/injection, schedule: Q01DX013 (ip), vehicle: other)?
A: 163 % of control

Q: What about the T/C (dose: 0.3 mg/kg/injection, schedule: Q04DX004 (ip), vehicle: Klucel (hydroxypropylcellulose) (HPC)) of the same molecule?
A: 123 % of control

Q: And the T/C (dose: 0.3 mg/kg/injection, schedule: Q04DX004 (ip), vehicle: other)?
A: 123 % of control

Q: And the T/C (dose: 0.3 mg/kg/injection, schedule: Q04DX004 (iv), vehicle: other)?
A: 117 % of control

Q: And the T/C (dose: 0.44 mg/kg/injection, schedule: Q04DX004 (iv), vehicle: other)?
A: 122 % of control

Q: What about the T/C (dose: 0.45 mg/kg/injection, schedule: Q01DX001 (sc), vehicle: other) of the same molecule?
A: 109 % of control

Q: And the T/C (dose: 0.67 mg/kg/injection, schedule: Q01DX001 (sc), vehicle: other)?
A: 99 % of control

Q: And the T/C (dose: 0.67 mg/kg/injection, schedule: Q04DX004 (ip), vehicle: Klucel (hydroxypropylcellulose) (HPC))?
A: 150 % of control

Q: And the T/C (dose: 1.0 mg/kg/injection, schedule: Q01DX001 (sc), vehicle: other)?
A: 104 % of control

Q: What about the T/C (dose: 1.0 mg/kg/injection, schedule: Q04DX004 (ip), vehicle: other) of the same molecule?
A: 169 % of control

Q: And the T/C (dose: 1.5 mg/kg/injection, schedule: Q01DX001 (sc), vehicle: other)?
A: 110 % of control

Q: What about the T/C (dose: 1.5 mg/kg/injection, schedule: Q04DX004 (ip), vehicle: Klucel (hydroxypropylcellulose) (HPC)) of the same molecule?
A: 161 % of control

Q: And the T/C (dose: 0.67 micrograms per hour, schedule: Q#X X024 (sc), vehicle: other)?
A: 122 % of control

Q: And the T/C (dose: 0.67 micrograms per hour, schedule: Q#X X072 (sc), vehicle: other)?
A: 152 % of control

Q: What about the T/C (dose: 1.0 micrograms per hour, schedule: Q#X X072 (sc), vehicle: other) of the same molecule?
A: 150 % of control

Q: What about the T/C (dose: 55.6 micrograms/kg/injection, schedule: Q03HX008 (sc), vehicle: other) of the same molecule?
A: 110 % of control

Q: And the T/C (dose: 83.4 micrograms/kg/injection, schedule: Q03HX008 (sc), vehicle: other)?
A: 118 % of control

Q: What about the T/C (dose: 125.0 micrograms/kg/injection, schedule: Q03HX008 (sc), vehicle: other) of the same molecule?
A: 123 % of control

Q: What about the T/C (dose: 281.0 micrograms/kg/injection, schedule: Q03HX008 (sc), vehicle: other) of the same molecule?
A: 120 % of control

Q: Which T/C (dose: 12.5 mg/kg/injection, schedule: Q04DX004 (ip), vehicle: water) does the source give for `O=C1C2C3C=CC(C2C(=O)N1CO)C1C2C(=O)N(CO)C(=O)C2C31` (centres undefined) here?
A: 103 % of control

Q: And the T/C (dose: 25.0 mg/kg/injection, schedule: Q04DX004 (ip), vehicle: water)?
A: 103 % of control

Q: And the T/C (dose: 50.0 mg/kg/injection, schedule: Q04DX004 (ip), vehicle: water)?
A: 98 % of control

Q: `O=C1CC2(C(=O)N1CN1CCOCC1)c1ccccc1-c1ccccc12` was tested. Which T/C [1] did it give?
A: 113 % of control

Q: What about the T/C [2] of the same molecule?
A: 121 % of control

Q: What does the source list for `COc1ccc(Cl)c2c1[nH]c1nc3nc4cc(Cl)ccc4n3nc12`?
A: T/C (dose: 75.0 mg/kg/injection, schedule: Q04DX004 (ip), vehicle: saline with Tween-80): 91 % of control; T/C (dose: 150.0 mg/kg/injection, schedule: Q04DX004 (ip), vehicle: saline with Tween-80): 90 % of control

Q: `COC1CC2C=C(C)/C=C/C=C/C(=O)NC(c3ccccc3)C/C=C/CCC(O)CC(=O)C2=C1O` (centres undefined) was tested. Which T/C (dose: 3.12 mg/kg/injection, schedule: Q04DX004 (ip), vehicle: Klucel (hydroxypropylcellulose) (HPC)) did it give?
A: 112 % of control

Q: What about the T/C [3] of the same molecule?
A: 118 % of control

Q: And the T/C [4]?
A: 110 % of control

Q: What about the T/C [5] of the same molecule?
A: 123 % of control

Q: Which T/C (dose: 16.0 mg/kg/injection, schedule: Q04DX004 (ip), vehicle: water) does the source give for `COc1ccc2[nH]c3ccc4cc[n+](CCN5CCC(C6CCN(CC[n+]7ccc8ccc9[nH]c%10ccc(OC)cc%10c9c8c7)CC6)CC5)cc4c3c2c1` here?
A: 157 % of control

Q: And the T/C (dose: 32.0 mg/kg/injection, schedule: Q04DX004 (ip), vehicle: water)?
A: 194 % of control

Q: `N=C(N)Sc1ccccn1` was tested. Which T/C (dose: 62.5 mg/kg/injection, schedule: Q04DX004 (ip), vehicle: saline) did it give?
A: 97 % of control

Q: And the T/C (dose: 125.0 mg/kg/injection, schedule: Q04DX004 (ip), vehicle: saline)?
A: 101 % of control

Q: And the T/C (dose: 250.0 mg/kg/injection, schedule: Q04DX004 (ip), vehicle: saline)?
A: 90 % of control

Q: Which T/C [5] does the source give for `CN(C)c1ccc2c(SCC(=O)OCC(=O)[C@@]3(O)CC[C@H]4[C@@H]5CCC6=CC(=O)C=C[C@]6(C)[C@H]5C(=O)C[C@@]43C)c3ccc(N(C)C)cc3nc2c1` here?
A: 101 % of control

Q: And the T/C (dose: 50.0 mg/kg/injection, schedule: Q04DX004 (ip), vehicle: Klucel (hydroxypropylcellulose) (HPC))?
A: 103 % of control

Q: And the T/C (dose: 100.0 mg/kg/injection, schedule: Q04DX004 (ip), vehicle: Klucel (hydroxypropylcellulose) (HPC))?
A: 97 % of control

Q: What about the T/C [1] of the same molecule?
A: 90 % of control

Q: What about the T/C [2] of the same molecule?
A: 94 % of control

Q: What does the source list for `Nc1ccc2ccc(NS(=O)(=O)N3CCCCC3)cc2c1`?
A: T/C [6]: 100 % of control; T/C [7]: 107 % of control; T/C [8]: 112 % of control; T/C [9]: 120 % of control

Q: For `CCOC(=O)c1cc(-c2ccccc2)c(OC)c(=O)nc1-c1ccccc1`, which T/C [6] is on record?
A: 89 % of control

Q: What does the source list for `O=C1N2CCNc3ccccc3C(c3ccccc3)N1CC2` (centres undefined)?
A: T/C [3]: 117 % of control; T/C [4]: 103 % of control; T/C [5]: 106 % of control

Q: How did the T/C (dose: 31.13 mg/kg/injection, schedule: Q04DX004 (ip), vehicle: distilled water + Tween-80) turn out when `NC(=O)c1ncn(C2CC3[O][Sn]([c]4ccccc4)([c]4ccccc4)[O]CC3O2)n1` (centres undefined) was run?
A: 95 % of control

Q: And the T/C (dose: 62.5 mg/kg/injection, schedule: Q04DX004 (ip), vehicle: distilled water + Tween-80)?
A: 104 % of control

Q: And the T/C (dose: 125.0 mg/kg/injection, schedule: Q04DX004 (ip), vehicle: distilled water + Tween-80)?
A: 114 % of control

Q: What about the T/C (dose: 250.0 mg/kg/injection, schedule: Q04DX004 (ip), vehicle: distilled water + Tween-80) of the same molecule?
A: 114 % of control

Q: And the T/C (dose: 500.0 mg/kg/injection, schedule: Q04DX004 (ip), vehicle: distilled water + Tween-80)?
A: 122 % of control

Q: Which results are given for `Cc1c(C(=N)C(C#N)C#N)c(=N)oc2c1ccc1ccccc12`?
A: T/C [6]: 96 % of control; T/C [7]: 96 % of control; T/C [8]: 92 % of control; T/C [9]: 94 % of control; T/C (dose: 800.0 mg/kg/injection, schedule: Q04DX004 (ip), vehicle: saline with Tween-80): 93 % of control

Q: `OCCN1CCN(CC/C=C2/c3ccccc3Sc3ccc(C(F)(F)F)cc32)CC1` was tested. Which T/C (dose: 6.25 mg/kg/injection, schedule: Q04DX004 (ip), vehicle: saline) did it give?
A: 108 % of control

Q: What about the T/C (dose: 12.5 mg/kg/injection, schedule: Q04DX004 (ip), vehicle: saline) of the same molecule?
A: 100 % of control

Q: What about the T/C (dose: 25.0 mg/kg/injection, schedule: Q04DX004 (ip), vehicle: saline) of the same molecule?
A: 108 % of control

Q: What about the T/C (dose: 50.0 mg/kg/injection, schedule: Q04DX004 (ip), vehicle: saline) of the same molecule?
A: 112 % of control
